Results from US5516525A, “Vitamin D derivative feed compositions and methods of use” (University of Georgia Research Foundation, Inc., priority 1994, dated 1996).
Like-named read-outs stand apart in the source and are kept apart here.

Columns and labels:
[1] = 16-day body weight and gain:feed (Example 2); format: in vivo, chicken (Peterson X Arbor Acre cockerels); conditions: D3 […], derivatives 10 μg/kg feed
Procedure: The basal diet used is described above in Table 2. Disulfiram was added to the basal diet of some chickens as indicated in Table 10 at a level of 30 mg/kg of feed. […]

tibial dyschondroplasia [2] = format: in vivo, chicken (Peterson X Arbor Acre cockerels); conditions: for #3/No. / % N2 + 3 / % N3: Study 3; for #3/No. / % N2 + 3 / % N3 / #3/total / % #3: D3 […], derivatives 10 μg/kg feed; for incidence and severity of tibial dyschondroplasia: in words, Example 2
Procedure: Deep irregularities are apparent.
The basal diet used is described above in Table 2. Disulfiram was added to the basal diet of some chickens as indicated in Table 10 at a level of 30 mg/kg of feed.
After the tibia was scored for incidence and severity of tibial dyschondroplasia, the left tibia was removed for a bone ash determination on the fat-free dried bone.

^47 Ca retention = experiment: 47Ca absorption and retention (Example 2); format: in vivo, chicken (Peterson X Arbor Acre cockerels); set-up: key to ^47 Ca intercept / Ca^47 Ret.: % of administered 47Ca retained (y-intercept of retention-vs-days plot); conditions: D3 […], derivatives 10 μg/kg feed; for Ca^47 Ret. / Ca^47 slope: Study 3; for ^47 Ca intercept / ^47 Ca slope: Study 2
Procedure: Absorption and retention of dietary calcium was measured by orally dosing chicks with ^47 Ca and then measuring the total body radioactive count, as described in Suso and Edwards, "A Study of Techniques for Measuring ^65 Zn Absorption and Biological Half-life in the Chicken," Poult. Sci. 47:991-999 (1968). Specifically, ten seven day old birds in one pen under the indicated dietary treatments were dosed orally with 0.5 milliliter of water solution containing 0.5 microcuries of ^47 Ca and 0.1 to 1.0 micrograms of calcium. The total body radioactive content of the individual chickens was determined immediately following dosing, and also on days 7, 9, 12 and 14 following dosing. A plot of percent administered ^47 Ca which was retained versus number of days yields a line which has a slope corresponding to the half-life of the radioactive calcium in the chicken, and a y-intercept that corresponds to the amount of calcium absorbed by the chicken. Effect of vitamin D3 derivatives on Tibial Dyschondroplasia.

bone ash = bone ash of left tibia (Example 1); conditions: in words
Excerpt: The left tibia was removed for bone ash determination on the fat-free bone.

[3] = 9-day body weight, feed consumption and gain:feed (Example 1); conditions: in words, Example 1
Procedure: Newly hatched Petersen X Arbor Acre cockerels obtained from a commercial hatchery were used. Animals were housed in electrically heated Petersime battery brooders with wire-mesh floors located in a room in which the temperature was maintained at 22° C., fluorescent lights were on 24 hours each day in the room and the cages, and sunlight was present during the day from large windows. No attempt was made to limit the natural production of vitamin D3. Feed and water were available to the chickens at all times.
Ten newly hatched birds were randomly placed in each section of the Petersime batteries until the birds were nine days old. The measurements described below were calculated on a pen basis; all statistical analyses were conducted on pen averages. Blood samples were taken by cardiac puncture with heparinized syringes from one randomly chosen bird from each pen on the ninth day before weighing the birds.
At nine days of age, pen body weights were obtained for all birds and their feed consumption was recorded. […] Briefly, using a three week old chicken as the reference animal, a score of zero indicates normal cartilage which is narrow with little irregularities. […] Deep irregularities are apparent. A score of three indicates a large mass of cartilage in the proximal end of the tibia. The birds were also scored for phosphorus deficient rickets at the same time they were scored for tibial dyschondroplasia. Chickens which had normal proliferating prehypertrophied zone and a lengthened metaphyseal primary spongiosa were classified as phosphorus deficient rickets. The left tibia was removed for bone ash determination on the fat-free bone.

calcium = conditions: in vivo; cited from earlier work
tibial dyschondroplasia [4] = conditions: cited from earlier work; for tibial dyschondroplasia (effect of dietary factor): chickens, dietary level
[5] = Study 1, with disulfiram 30 mg/kg feed
[6] = Study 2, with disulfiram 30 mg/kg feed
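Throughout, for #3/No.: score 3 means a large cartilage mass in the proximal tibia.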
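Throughout, for #3/total: score 3 means a large cartilage mass in the proximal tibia.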
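Throughout, for % #3: score 3 means a large cartilage mass in the proximal tibia.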
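Throughout, for % N3: score 3 means a large cartilage mass in the proximal tibia.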

Row | Molecule | 16 Day Wt. ([1]; Study 3) | Gain/feed ([1]; Study 3) | 16 Day wt. ([1]; Study 4) | Gain/feed ([1]; Study 4) | #3/No. (tibial dyschondroplasia [2]) | % N2 + 3 (tibial dyschondroplasia [2]) [%] | % N3 (tibial dyschondroplasia [2]) [%] | #3/total (tibial dyschondroplasia [2]; Study 4) | % #3 (tibial dyschondroplasia [2]; Study 4) [%] | incidence and severity of tibial dyschondroplasia (tibial dyschondroplasia [2]) | Ca^47 Ret. (^47 Ca retention) | Ca^47 slope (^47 Ca retention) | tibial dyschondroplasia (effect of dietary factor) (tibial dyschondroplasia [4]) | further results
1 | C=C1/C(=C\C=C2/CCC[C@]3(C)[C@@H]([C@H](C)CCCC(C)C)CC[C@@H]23)C[C@@H](O)C[C@@H]1O [1-OHD3, 1-hydroxycholecalciferol] | 423 | .661 | 372 | .655 | 3/60 | 17 | 5 | 8/57 | 15 | significant reduction in the incidence of tibial dyschondroplasia | 75 | -.95 |  | bone ash (bone ash): increased; nine day weight [3]: increased
2 | C=C1/C(=C\C=C2/CCC[C@]3(C)[C@@H]([C@H](C)CC[C@@H](F)C(C)(C)O)CC[C@@H]23)C[C@@H](O)C[C@@H]1O [1,25-(OH)2-24R-FD3, 1,25-dihydroxy-24-fluorocholecalciferol] | 413 | .663 | 360 | .661 | 3/60 | 15 | 5 | 9/56 | 16 | significant reduction in the incidence of tibial dyschondroplasia | 72 | -.47 |  | 
3 | CCN(CC)C(=S)SSC(=S)N(CC)CC [Disulfiram, bis(diethylthiocarbamyl)disulfide, reference compound] |  |  |  |  |  |  |  |  |  |  |  |  |  | 16 Day wt. [1, 5]: 433; Gain:Feed [1, 5]: .750; 16 day wt [1, 6]: 394; Gain:Feed [1, 6]: .671; #3/total (tibial dyschondroplasia [2]; [5]): 16/30; #3/total (tibial dyschondroplasia [2]; [6]): 14/28; ^47 Ca intercept (^47 Ca retention; with disulfiram 30 mg/kg feed): 73; ^47 Ca slope (^47 Ca retention; with disulfiram 30 mg/kg feed): -1.59; calcium absorption / loss (calcium): lowers the absorption of calcium
4 | magnesium |  |  |  |  |  |  |  |  |  |  |  |  | decrease the incidence of tibial dyschondroplasia | 
5 | CN(C)C(=S)SSC(=S)N(C)C [thiruram, bis(dimethylthiocarbamyl)disulfide, reference compound] |  |  |  |  |  |  |  |  |  |  |  |  | causes tibial dyschondroplasia | calcium absorption / loss (calcium): rapid loss of intramuscularly-injected calcium
6 | C=C1CC[C@H](O)C/C1=C/C=C1\CCC[C@]2(C)[C@@H]([C@H](C)CCCC(C)C)CC[C@@H]12 [D3, cholecalciferol, reference compound] | 434 | .709 | 383 | .701 | 13/59 | 34 | 22 | 20/58 | 35 |  | 75 | -1.13 |  | 16 Day wt. ([1]; Study 1, basal diet): 451; Gain:Feed ([1]; Study 1, basal diet): .734; 16 Day wt. [1, 5]: 432; Gain:Feed [1, 5]: .708; 16 day wt ([1]; Study 2, basal diet): 368; Gain:Feed ([1]; Study 2, basal diet): .647; 16 day wt [1, 6]: 374; Gain:Feed [1, 6]: .666; #3/total (tibial dyschondroplasia [2]; Study 1, basal diet): 4/27; #3/total (tibial dyschondroplasia [2]; [5]): 9/27; #3/total (tibial dyschondroplasia [2]; Study 2, basal diet): 5/29; #3/total (tibial dyschondroplasia [2]; [6]): 12/30; ^47 Ca intercept (^47 Ca retention; basal diet): 77; ^47 Ca slope (^47 Ca retention; basal diet): -1.88; ^47 Ca intercept (^47 Ca retention; with disulfiram 30 mg/kg feed): 72; ^47 Ca slope (^47 Ca retention; with disulfiram 30 mg/kg feed): -1.97
7 | [2H]C([2H])([2H])C(O)(CCC[C@@H](C)[C@H]1CC[C@H]2/C(=C/C=C3/C[C@@H](O)C[C@H](O)C3=C)CCC[C@]12C)C([2H])([2H])[2H] [1,25-(OH)2-26,27[^1 H]6 D3, 1,25-dihydroxy-26,27-hexadeuterocholecalciferol] | 422 | .687 | 360 | .646 | 0/60 | 8 | 0 | 4/58 | 7 | significant reduction in the incidence of tibial dyschondroplasia | 80 | .15 |  | 
8 | C=C1CC[C@H](O)C/C1=C/C=C1\CCC[C@]2(C)[C@@H]([C@H](C)CCCC(C)(C)O)CC[C@@H]12 [25-OHD3, 25-hydroxycholecalciferol] |  |  |  |  |  |  |  |  |  | reduced the incidence of tibial dyschondroplasia |  |  |  | 16 Day wt. ([1]; Study 1, basal diet): 395; Gain:Feed ([1]; Study 1, basal diet): .667; 16 Day wt. [1, 5]: 398; Gain:Feed [1, 5]: .706; 16 day wt ([1]; Study 2, basal diet): 392; Gain:Feed ([1]; Study 2, basal diet): .713; 16 day wt [1, 6]: 395; Gain:Feed [1, 6]: .728; #3/total (tibial dyschondroplasia [2]; Study 1, basal diet): 1/28; #3/total (tibial dyschondroplasia [2]; Study 2, basal diet): 7/30; #3/total (tibial dyschondroplasia [2]; [6]): 11/28; ^47 Ca intercept (^47 Ca retention; basal diet): 72; ^47 Ca intercept (^47 Ca retention; with disulfiram 30 mg/kg feed): 74; ^47 Ca slope (^47 Ca retention; with disulfiram 30 mg/kg feed): -1.67
9 | C=C1/C(=C\C=C2/CCC[C@]3(C)[C@@H]([C@H](C)CCC(O)C(C)(C)O)CC[C@@H]23)C[C@@H](O)C[C@@H]1O (stereo partly shown) [1,24,25-(OH)2 D3, 1,24,25-trihydroxycholecalciferol] | 428 | .688 | 376 | .681 | 6/60 | 22 | 10 | 8/57 | 14 | significant reduction in the incidence of tibial dyschondroplasia | 76 | -.77 |  | 
10 | calcium |  |  |  |  |  |  |  |  |  |  |  |  | retards development of the lesion | 
11 | C=C1CC[C@H](O)C/C1=C/C=C1\CCC[C@]2(C)[C@@H]([C@H](C)CCC(O)C(C)(C)O)CC[C@@H]12 (stereo partly shown) [24,25-(OH)2 D3, 24,25-dihydroxycholecalciferol, reference compound] | 424 | .696 | 351 | .663 | 17/59 | 53 | 29 | 25/56 | 46 | not effective in preventing the development of tibial dyschondroplasia | 67 | -.77 |  | incidence of tibial dyschondroplasia (tibial dyschondroplasia [4]; 20 ng/day, Edwards, J. Nutr. 114:1001 (1984)): no effect on the incidence of tibial dyschondroplasia; bone ash (bone ash): no effect; nine day weight [3]: no effect
12 | chloride |  |  |  |  |  |  |  |  |  |  |  |  | increased the incidence of the abnormality | 
